Results from US5047533A, “Acyclic purine phosphonate nucleotide analogs” (SRI International, priority 1990, dated 1991).
In brackets after ≈: the same amount, converted by molar mass. Like-named read-outs stand apart in the source and are kept apart here.

Tests used:
[1] = system: human cytomegalovirus (strain AD169); assay: Plaque reduction, human cytomegalovirus; assay type: cell-based
Method: One herpes virus strain employed was Strain McCrae of type 1 herpes (thymidine kinase positive virus) (HSV-1TK^+). This strain was prepared and titered in MA-104 cells and frozen at -90° C. until use. Also used were strain HF (HSV-1TK^-). Strain E194 (HSV-2), NJB strain (MCMV), strain AD169 (HCMV).
^a 50% effective dose, determined from plot of data.
(§1) The data on acyclovir were gathered from tests run in MRC-5 cells grown under agarose overlay, with plaques read 7 days after virus exposure.

[2] = system: reverse transcriptase (RT) from Moloney murine leukemia virus (MMLV) or avian myeloblastosis virus (AMV); assay: Reverse transcriptase assay; assay type: biochemical; details: 1 mM
Method: For the reverse transcriptase assay, cloned reverse transcriptase (RT) (Bethesda Research Laboratories) from Moloney murine leukemia virus (MMLV) or avian myeloblastosis virus (AMV) (Seikagaku or Boehringer Mannheim) was used to direct DNA synthesis from a polyribonucleotide template and a oligodeoxynucleotide primer under reaction conditions (Houts, G. E., et al, J Virol (1979) 29:517.)
Reaction mixtures (100 μl) for the assay of MMLV RT consisted of 50 mM Tris-hydrochloride, pH 8.0, 6 mM MgCl2, 40 mM KCl, 100 μg bovine serum albumin per ml, 1 mM dithiothreitol, 0.1 mM polyadenylic acid (Pharmacia, Inc.), 0.1 mM oligo(dT)12-18 (Pharmacia, Inc.), 0.4 mM deoxythymidine triphosphate (dTTP), and 0.1 mM tritiated (93.5 Cl/mmol) dTTP (New England Nuclear). The compounds assayed were added in various concentrations and dilutions at a volume of 10 μl. Results were confirmed by duplicate assays. Dilutions were made using 10% aqueous DMSO. The total activity was measured by spotting on dry Whatman 3 mm filter disks and radioactivity was determined by liquid scintillation techniques. The assay time course was begun by adding 10 units of RT from MMLV or AMV and incubating the reaction at 37° C. […] Disks were dried under a heat lamp and the acid-insoluble product radioactivity was determined by liquid scintillation counting. […]

[3] = system: HIV; assay: Antiviral activity versus HIV in lymphoblastoid cells; assay type: cell-based; details: Human immunodeficiency virus 1, Lymphoblastoid cell, read-out: ED50 against HIV
Method: The compounds of the invention were evaluated in vitro as antiviral agents against herpes virus and against RNA retrovirus. Various herpes strains were used. An infected B lymphoblastoid cell line was used as HIV substrate to test antiviral activity with respect to RNA retrovirus.
To test antiviral activity versus HIV, the following procedure was used: Infectious HIV was assayed in cell culture as described originally by Barre-Sinoussi et al for isolation of LAV, except that persistently infected lymphoblastoid cells were used instead of mononuclear cells from anti-LAV negative donors. HIV obtained from cell culture was stored in liquid nitrogen in aliquots of RPMI 1640 culture medium with 20% of total calf serum and 20% glycerol and containing 1,000 TCID-50 HIV. The lymphoblastoid cells (10^6) were incubated with 1,000 TCID-50 of HIV obtained from cell cultures, and cells were then cultured in RPMI-1640 medium. Culture medium was changed every 3 days for 3 weeks and the medium for each 3-day period from Day 6 through Day 21 was assayed for viral reverse transcriptase activity by concentrating (pelleting) virus by ultracentrifugation in the 100 place Spinco 25 rotor and assaying pellets for reverse transcriptase (RT) using a ^32 P-dTTP in the presence of dimer-template poly rA-oligo dT. […]

[4] = system: MA-104 cells; assay: Cytotoxicity controls (maximum tolerated dose) in MA-104 cells; assay type: cell-based, monkey; details: Table 3 Test 2
Method: Continuous passaged monkey kidney (MA-104) cells were used for testing of herpes-type virus, with growth medium consisting of Minimum Essential Medium (MEM) supplemented with 0.1% NaHCO3 and […] gentamicin.
To a 96 well microtiter plate containing an established 24 hour monolayer of cells from which the medium has been decanted was added 0.1 ml of varying (one-half log10) concentrations of test compound, which incubated on the cell 15 minutes, after which 0.1 ml of virus in a concentration of 320 cell culture 50% infectious doses (CCID50)/0.1 ml was added. The plate was covered with plastic wrap and incubated at 37° C. Included with the test were toxicity controls (each concentration of compound+test medium in place of virus), virus controls (virus+test medium in place of compound) and cell controls (test medium in place of compound and virus). The cells were examined microscopically after 72 hours for evidence of cytotoxicity and for viral cytopathic effect (CPE). Vidarabine was run on the same plate in parallel. […] were added to the medium at a concentration of 2000 μg/ml for use as a positive control.
*Maximum tolerated dose, μg/ml.

[5] = Cytotoxicity (maximum tolerated dose), control tests in 96-well microplates; assay type: cell-based; details: Table 5; microscopic examination, separately run control tests; read-out: Approx. MTD (dose causing approximately 50% cytotoxic effects in cells)
Description: (§2) ^b Maximum tolerated dose: That dose causing approximately 50%
(§3) cytotoxic effects in cells, determined by the microscopic examination of
(§4) cells for sloughing, shape alteration, and granularity in separately run
(§5) control tests in 96well microplates.
as §1

[6] = system: cells; assay: as above; assay type: cell-based; details: overall, Table 5
Description: as §2, §3, §4, §5, §1

[7] = system: HSV-1TK+; assay: In vivo guinea pig HSV-1TK+ lesion test, topical solution; details: guinea pigs; for TK+ (average number of lesions): five days after treatment
Method: Compound 2 also was tested in vivo in guinea pigs as an agent against HSV-1TK^+. The animals were inoculated with the virus; 18 hours later Compound 2 at two concentrations (0.4% and 1-2% (saturated) solution in water) was administered, and five days later blister diameters at the point of inoculation were measured. A 5% solution of acyclovir or a 1.4% solution of poly(vinylalcohol) was used as control. Satellite lesions were measured, as well.

[8] = 1-2% (saturated) solution in water

Compound: CCOP(=O)(O)CCCOCn1cnc2c(=O)[nH]c(N)nc21 [Compound 2, 9(3'-ethylphosphono-1'-propyloxymethyl)guanine]
- No. Plaques ([1]; Experiment No. 1, 32 μg/ml): 5
- No. Plaques ([1]; Experiment No. 1, 100 μg/ml): 0
- No. Plaques ([1]; Experiment No. 2, 10 μg/ml): 17
- No. Plaques ([1]; Experiment No. 2, 32 μg/ml): 6
- No. Plaques ([1]; Experiment No. 2, 100 μg/ml): 1
- inhibition at 32 µg/mL ([1]; Human betaherpesvirus 5, AD169, read-out: % Reduct., Experiment No. 1, 32 μg/ml): 71%
- inhibition at 100 µg/mL ([1]; Human betaherpesvirus 5, AD169, read-out: % Reduct., Experiment No. 1, 100 μg/ml): 100%
- inhibition at 10 µg/mL ([1]; Human betaherpesvirus 5, AD169, read-out: % Reduct., Experiment No. 2, 10 μg/ml): 23%
- inhibition at 32 µg/mL ([1]; Human betaherpesvirus 5, AD169, read-out: % Reduct., Experiment No. 2, 32 μg/ml): 73%
- inhibition at 100 µg/mL ([1]; Human betaherpesvirus 5, AD169, read-out: % Reduct., Experiment No. 2, 100 μg/ml): 96%
- EC50 ([1]; Human betaherpesvirus 5, AD169, read-out: Approx. ED50, Experiment No. 2, determined from plot of data): 10 to 32 µg/mL (≈ 30.2 to 96.6 µM)
- EC50 ([1]; Human betaherpesvirus 5, AD169, read-out: ED50, human CMV): 10 µg/mL (≈ 30.2 µM)
- human CMV-inhibitory effect relative to acyclovir ([1]; overall, Table 5): approximately the same
- inhibition of reverse transcriptase [2]: 100%
- EC50 [3]: 30 µg/mL (≈ 90.6 µM)
- MTD (Maximum tolerated dose) [4]: > 1000 µg/mL
- CC50 [5]: ~1000 µg/mL (≈ 3020 µM)
- cytotoxicity relative to acyclovir [6]: approximately the same
- Satellite lesions ([7]; 0.4% solution in water): 11
- TK+ (average number of lesions) ([7]; 0.4% solution in water): 2.1
- Satellite lesions [7, 8]: 6
- TK+ (average number of lesions) [7, 8]: 0.9
- activity against HSV TK+ virus in vivo ([7]; at least in saturated solution): has activity
